The source of these data is patent US8466202B2, “Anthracenedione compounds” (Sunten Phytotech Co., Ltd., priority 2006, dated 2013).

Molecules are shown by their SMILES. Where “and” joins values, the source holds several entries; their conditions need not be identical. Equal entries are not always repeated.

A short description of data set [1]: Body weight of rats over the 10-day period (Example 3). In kind it is in vivo, rat. To be noted: Group III, Physcion 4 mg/kg, CP 8 mg/kg. Also noted: Body weight Difference: unit not given here. As for the experimental part: The aforementioned STD05 and compounds were studied for the laxative activity. Healthy male S.D. rats (BioLASCO Taiwan Co. Ltd.) were divided into three groups (i.e., Groups 1-3) in this study. In Group I, 6 rats, as negative control, were given no treatment; 6 rats, as positive control, were given 3.35 mg/kg/day Sennosides (Through®, Chung Mei Pharmaceutical Co., Ltd; Active ingredient: Sennosides 20 mg, as sennoside A+B 12 mg, Lot. 012F 006); 6 rats were treated STD05 (8 mg/kg/day); 6 rats were treated with an extract fraction containing aloe-emodin, rhein, and emodin (“ARE”, 8 mg/kg/day); 6 rats were treated with Aloe-emodin (4 mg/kg/day); and 6 rats were treated with Rhein (4 mg/kg/day). In Group II, 6 rats, as negative control, were given no treatment; 6 rats, as positive control, were given 3.35 mg/kg/day Sennosides; 6 rats were treated STD05 (24 mg/kg/day); 6 rats were treated with an extract fraction containing ARE (24 mg/kg/day); 6 rats were treated with Chrysophanol (4 mg/kg/day); and 6 rats were treated with Emodin (4 mg/kg/day). In Group III, 6 rats, as negative control, were given no treatment; 6 rats were treated with Physcoin (4 mg/kg/day); and 6 rats were treated with a mixture of chrysophanol and physcion (8 mg/kg/day, “CP”). The experiments were carried out under controlled temperature, humidity, and lighting. Each rat was fed standard rat food and water ad libitum in housing that provided a 12-hour light/dark cycle. For statistical comparison, all of the rats were divided into six sets according to the body weights. The first part of the experiment studied the effect of the test substances on feces production. During the 10-day period, the body weights of the rats were weighed each day and recorded. The rat's feces was also studied three times in the manner described above during the 10-day period for any unusual observations. During the 10-day period, any rat that appeared dying was euthanized, dissected, and examined for any illness or injury. Any complications or illness were analyzed by H&E stains to determine the cause of death and to allow for dosage reconsiderations for future experiments. Summarized in Table 4 below are the effects of the compounds, mixtures, or extracts on the rat body weights.

For a further data set, the system named is healthy male S.D. rats. Briefly: Feces production in rats over the 10-day period (Example 3). The class given is in vivo, rat. Conditions: for increase of the feces amount (wet weight): vs control of the same group; for Pellet count / Water content / Wet Weight: Group III, Physcion 4 mg/kg, CP 8 mg/kg. As for the experimental part: During this period, the body weights of the rats were weighed each day and recorded. Feces of each rat were studied three times during the period for any unusual observations. Specifically, the amounts of feces were weighed on Days 11, 15, 18, and 21. During observation, each rat was placed in a metabolic cage. Feces were collected every twenty-four hours. The number of collected feces pellets was counted, and the pellets' shapes and colors were evaluated. After weighing the moist feces, they were dried in an oven at 100° C. for twenty-four hours. The water content from the feces was calculated according to the following formula: Water content percentage=[(wet weight−dry weight)/wet weight]×100%. (I) The results are summarized in Table 2 below: The aforementioned STD05 and compounds were studied for the laxative activity. Healthy male S.D. rats (BioLASCO Taiwan Co. Ltd.) were divided into three groups (i.e., Groups 1-3) in this study. In Group I, 6 rats, as negative control, were given no treatment; 6 rats, as positive control, were given 3.35 mg/kg/day Sennosides (Through®, Chung Mei Pharmaceutical Co., Ltd; Active ingredient: Sennosides 20 mg, as sennoside A+B 12 mg, Lot. 012F 006); 6 rats were treated STD05 (8 mg/kg/day); 6 rats were treated with an extract fraction containing aloe-emodin, rhein, and emodin (“ARE”, 8 mg/kg/day); 6 rats were treated with Aloe-emodin (4 mg/kg/day); and 6 rats were treated with Rhein (4 mg/kg/day). In Group II, 6 rats, as negative control, were given no treatment; 6 rats, as positive control, were given 3.35 mg/kg/day Sennosides; 6 rats were treated STD05 (24 mg/kg/day); 6 rats were treated with an extract fraction containing ARE (24 mg/kg/day); 6 rats were treated with Chrysophanol (4 mg/kg/day); and 6 rats were treated with Emodin (4 mg/kg/day). In Group III, 6 rats, as negative control, were given no treatment; 6 rats were treated with Physcoin (4 mg/kg/day); and 6 rats were treated with a mixture of chrysophanol and physcion (8 mg/kg/day, “CP”). The experiments were carried out under controlled temperature, humidity, and lighting. Each rat was fed standard rat food and water ad libitum in housing that provided a 12-hour light/dark cycle. For statistical comparison, all of the rats were divided into six sets according to the body weights. The first part of the experiment studied the effect of the test substances on feces production. During the 10-day period, the body weights of the rats were weighed each day and recorded. The rat's feces was also studied three times in the manner described above during the 10-day period for any unusual observations. During the 10-day period, any rat that appeared dying was euthanized, dissected, and examined for any illness or injury. Any complications or illness were analyzed by H&E stains to determine the cause of death and to allow for dosage reconsiderations for future experiments. Summarized in Table 4 below are the effects of the compounds, mixtures, or extracts on the rat body weights. During the period, feces produced by the rats were studied days 1, 5, and 10 in the same manner described above. […] In the 10-day period, the rats administered with STD05 produced more feces (wet weight) that the rats in the control group by about 32%. In addition, the pellet counts for the rats administered with STD05 were greater than those for the control rats by about 20%. Furthermore, STD05 increased the water content in feces by about 18%. The same experiments were conducted on rats administered with physcion, aloe-emodin, chrysophanol, rhein, emodin, CP, and ARE.

Data set [2] in a line: Enteric absorption rate (statement, no method given). Conditions: general statement.
Data set [3] can be described thus: Side effects compared with Rheum palmatum Linne herb extracts (statement, no method given). To be noted: general statement.

On to `COc1cc(O)c2c(c1)C(=O)c1cc(C)cc(O)c1C2=O` [Physcion, physcion], for which, in data set [1] (group mean, Day 10 minus Day 1), the Body weight Difference, Mean came out at 30 g. This molecule also yielded a Body weight End Day 10, Mean in data set [1] (group mean) of 425 g. In addition, the “Body weight Difference” value in data set [1] (individual rats, Day 10 minus Day 1) was 25 and 30 (3×) and 45 and 20. For the same molecule, the “Body weight End Day 10” value in data set [1] (individual rats, in g (unit assumed)) is 410 and 430 and 450 and 385 and 415 and 460. Further, in the data set with healthy male S.D. rats (Day 1), the “increase of the feces amount (wet weight)” value was 93%, the Pellet count stood at 134, the Water content was 55.73% and the “Wet Weight” value is 35.38 g. Further, in the data set with healthy male S.D. rats (Day 5), the “increase of the feces amount (wet weight)” value amounted to 57%, the Pellet count came to 128, the Water content came to 53.80% and the “Wet Weight” value was 35.17 g. Besides, in the data set on healthy male S.D. rats (Day 10), the “increase of the feces amount (wet weight)” value was determined as 32%, the Pellet count is given as 121, the Water content came to 47.66% and the “Wet Weight” value amounted to 29.43 g. Further, the “increase of the feces amount (wet weight), average” value in the data set on healthy male S.D. rats (average of Days 1, 5 and 10) is 61%. Also, the enteric absorption rate entry in data set [2] is on record as “very low”. Also, in data set [3], the “side effects often seen in herb extracts (cramping, bloating, gas, and diarrhea)” value is on record as “do not have the side effects”.
